The text below walks through data of patent US6376666B1 (Nauchno-Issledovatelsky Institut Farmakologii Rossiiskoi …, priority 1994, dated 2002).

Series [1] concerns calcium chloride arrhythmia. The series can be described thus: calcium chloride arrhythmia in concious rats. The class given is in vivo. Conditions: Rattus norvegicus, iv, concious rats, given 2 min prior calcium chloride 250-300 mg/kg i.v.; read-out: Calcium chloride arrhythmia ED50 (mean effective dose). Here is the method: In these experiments the outbred concious rats 180-200 g of weight were injected with 10% solution of calcium chloride in tail vein at dose range of 250-300 mg/kg.

The next series concerns aconitine arrhythmia. The series can be described thus: animal or person. The class given is in vivo, rats. Conditions: for ED50: Rattus norvegicus, iv, read-out: Aconitine arrhythmia ED50. As for the experimental part:
Aconitine arrhythmia. The aconitine arrhythmia was induced in concious rats weighing 180-200 g by the injection in tail vein of the aconitine sulfate solution at dose range of […]. […] The tested compounds were administered i.v. 3 min prior aconitine injection. The ED50 value was calculated according to Litchfield's method.

The next series in a line: in vivo. Conditions: iv.
Series [2] deals with ventricular disturbances of heart rhythm. As to the kind of experiment: arrhythmia in concious dogs according to Harris. Conditions: for % ectopic contractions, change vs basal level / Heart rate, change vs basal level: concious dogs, 2 mg/kg i.v. The series is classed as in vivo. As for the experimental part:
The arrhythmia in concious dogs according to Harris. The experiments were conducted in mongrel dogs of either sex weighing 9-14 kg. Under anesthesia (40 mg/kg of nembutal i.v.) and artificial respiration the two-step occlusion of the left anterior descending coronary artery was performed. The constant ECG disturbances of the heart rhythm were recorded after 24 hours. […] T-Student' test was used for statistical calculation.

Series [3] deals with ischemized myocardium of cats. The series can be described thus: contractile and pump functions and ATP level of ischemized myocardium (20-40 min occlusion, reperfusion). The series is classed as in vivo. As for the experimental part:
The effects of this compound on contractile and pump functions of ischemized myocardium were studied in cats weighing 3,0-4,5 kg under anesthesia with nembutal (40 mg/kg). […] The phase curve of blood flow in ascending part of the aortic arch was recorded with electromagnetic blood flowmeter MFV-1200 (“Nihon-Kohden”, Japan). Hemodynamics, heart activity values and the number of arrhythmia were calculated. In the experiments with 40 min ischemia immediately after 60 min the intact and ischemized zones of left ventricle were dissected and freezed in liquid nitrogen. ATP level was measured using hexokinase method in these zones. 4 series of experiments (2-control and 2-basic) were conducted in 12 cats in each. For statistical calculation the t-Student and Fisher's precision test were used.

For series [4], the system named is ischemized myocardium of cats. As to the kind of experiment: ST-segment elevation during 5 min occlusions of coronary artery (acute coronary deficiency). The settings on record: cats, bolus injection. The class given is in vivo. As for the experimental part:
These experiments were conducted in cats weighing 2,5-4,0 kg under anasthesia by i.v. injection of nembutal (40 mg/kg) in open chest conditions. Epicardium electrogram in 3-4 leads was registered in “Mingograph-81”. The value of mean elevation of ST-segment during 5 min occlusions of anterior left descending coronary artery with 15 min reperfusions between them was the main index of intensity of reversible ischemized damage of myocardium.
The statistical calculation was carried out with non-parametric Wilcocson method for associated variants.

A further series deals with cats. The series can be described thus: hemodynamics and activity of intact heart in cats under anesthesia. The class given is in vivo. The settings on record: for effect on heart rate, in words: VIII 1,0, IX 0,5 and 1,0, XX 1,0 and 2,0 mg/kg, XXIII 1.0, verapamil 0.5 mg/kg. As for the experimental part:
The effects of compounds on the hemodynamics and activity of intact heart were studied in cats under anesthesia. The experiments were carried out under conditions of open chest. The phase curve of aortic blood flow was the main index of cardiac activity. The compounds were administered i.v. in physiological solution. The t-Student' test was used to estimate the statistical significance.

A further series concerns adrenaline arrhythmia. The series can be described thus: adrenaline arrhythmia in concious rabbits. The settings on record: given 2 min before arrhythmogenic dose of adrenaline.
For another series, the system named is Balb/c mice. As to the kind of experiment: open-field test, Balb/c mice (passive type of emotional-stress reaction). The series is classed as in vivo. The settings on record: i.p., screening. The procedure, abridged:
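Male mice, 20-22 g, dosed i.p. in water 30 min before a 3-min open-field test after 1 min in darkness; peripheral, central, rearing and total activity plus defecations recorded; Student t-test. Anxiolysis read as Balb/c activation, sedation as C57B1/6 inhibition.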

[5] abbreviates: 1.0 mg/kg i.v., 0.25 min after injection.
[6] abbreviates: cats, 1.0 mg/kg i.v., after 2 min.
Setting [7] is: cats, 1.0 mg/kg i.v., after 5 min.
Where [8] appears, read: cats, 1.0 mg/kg i.v., after 10 min.
Where [9] appears, read: cats, 1.0 mg/kg i.v., after 20 min.
[10] abbreviates: cats, 1.0 mg/kg i.v., after 30 min.
Setting [11] is: 0.5 mg/kg i.v., 0.25 min after injection.
[12] abbreviates: cats, 0.5 mg/kg i.v., after 2 min.
Where [13] appears, read: cats, 0.5 mg/kg i.v., after 5 min.
[14] abbreviates: cats, 0.5 mg/kg i.v., after 10 min.
The mark [15] stands for this setting: cats, 0.5 mg/kg i.v., after 20 min.
Setting [16] is: cats, 0.5 mg/kg i.v., after 30 min.

Counter-ions that a name gives are not always drawn.

Description for adrenaline arrhythmia: Adrenaline arrhythmia. The 0,1% solution of adrenaline hydrochloride was injected to the marginal ear's vein of rabbit weighing 2,5-3,0 kg at dose ranging 120-150 mcg/kg which induced cardiac rhythm disturbances of two types.
The tested compound was injected in 3 ml of distilled water 30 min after determination of arrhythmogenic dose of adrenaline and the ECG was recorded in 2nd standard lead. 2 min after administration of tested compound the arrhythmogenic dose of adrenaline was injected.

What is called melting point is the temperature of the solid-liquid transition. As to `CCCSc1nc2cc(C)c(C)cc2[nH]1` [II, 2-Propylthio-5,6-dimethylbenzimidazole], the melting point is 122 to 123 °C.

With `CCOc1ccc2nc(SCCN3CCCC3)[nH]c2c1` (as salt: hydrochloride) [Compound X, 2-[2-(Pyrrolidino)ethylthio]-5-ethoxybenzimidazole], the melting point was 127 to 130 °C (dec.).

As to `Cc1cc2nc(SCCN3CCCC3)[nH]c2cc1C` (as salt: hydrochloride) (hydrate or solvate) [XIII, 2-[2-(Pyrrolidino)ethylthio]-5,6-dimethylbenzimidazole], the melting point is 115 to 116 °C (dec.).

Consider `CCN(CC)CCSc1nc2ccccc2n1CCc1ccccc1` (as salt: hydrochloride) [XXI, 1-(β-Phenylethyl)-2-[2-(diethylamino)ethylthio]benzimidazole], for which the melting point is 129 to 130 °C.

By ED50 is commonly meant the dose at which the effect has come halfway, by size or by number of responders. The term LD50 denotes the dose expected to kill half of the subjects tested. For `CCN(CC)CCNC(=O)c1ccc(N)cc1` [Novocainamide, novocainamide, reference compound], the ED50 in series [1] came out at 50 mg/kg; with aconitine arrhythmia, 41 mg/kg. The “LD50/ED50 (antiarrhythmic index)” value with aconitine arrhythmia (LD50 i.v. / ED50 aconitine arrhythmia) is reported as 2.7. Besides, in “in vivo”, the median lethal dose (LD50) was 110 mg/kg.

As to `CCN(CC)CCSc1nc2cc(C)c(C)cc2[nH]1.Cl.Cl` [XXIII, dihydroxychloride 2-[2-(diethylamino)ethylthio]-5,6-dimethylbenzimidazole, reference compound], the “% ectopic contractions, change vs basal level” value in [2] (after 1 min) is recorded as −57.4 ± 17.6 %; in series [2] (after 3 min), −66.2 ± 18.1 %; in series [2] (after 5 min) it was −54.6 ± 16.8 %; in series [2] (after 10 min), −22.6 ± 8.9 %; in series [2] (after 15 min), −24.8 ± 11.1 %; in series [2] (after 30 min), −8.8 ± 4.7%. Further, the “% ectopic contractions, change vs basal level” value in series [2] (after 60 min) is −5.2 ± 2.6%. Also, the “Heart rate, change vs basal level” value is given as −19.0 ± 2.5 beats/min in series [2] (after 1 min); −30.4 ± 4.5 beats/min in series [2] (after 5 min); −29.0 ± 5.5 beats/min in series [2] (after 15 min); −14.0 ± 4.8 beats/min in series [2] (after 30 min); −12.0 ± 5.5 beats/min in [2] (after 60 min). For the same molecule, the “duration of antiarrhythmic effect” value in series [2] (concious dogs, 2,0 mg/kg i.v.) was “shorter”. For the same molecule, in series [3] (20 min occlusion, 30 min reperfusion, 1,0 mg/kg bolus +50 mcg/kg/min i.v. during 30 min), the “effect on inhibition of contractile function of myocardium induced by ischemic damage, in words” value is “observable only during occlusion period and first 10 min of reperfusion”. In addition, the “effect on ATP level in ischemized myocardium, in words” value in [3] (40 min occlusion, 60 min reperfusion, hexokinase method) was “did not change the ATP level”. Also, in series [4], the “duration of effect on ST-segment elevation after bolus injection, in words” value was “very short”. The “Cardiac volume, change from basal level” value is on record as “+3.6 ± 3.5%” with cats (setting [5]); −3.6 ± 2.0% in the series on cats (setting [6]); −0.6 ± 2.3% in the series with cats (setting [7]); −0.7 ± 3.6% with cats (setting [8]); −4.2 ± 2.4% in the series on cats (setting [9]); −4.5 ± 3.5% in the series on cats (setting [10]). Besides, the “Heart rate, change from basal level” value in the series on cats (setting [5]) is listed as −14.6 ± 1.2 %; with cats (setting [6]) it was −11.7 ± 1.3 %; in the series with cats (setting [7]) it was −7.9 ± 1.6 %; with cats (setting [8]), −5.1 ± 1.2 %; with cats (setting [9]) it was −3.8 ± 1.5 %; with cats (setting [10]), −4.1 ± 1.0 %. For the same molecule, the “Mean blood flow accelaration, change from basal level” value in the series with cats (setting [5]) was “+2.1 ± 4.9%”. Besides, the “Mean blood pressure, change from basal level” value in the series on cats (setting [5]) is −13.9 ± 2.9 %; in the series with cats (setting [6]), −0.2 ± 4.0%; in the series on cats (setting [7]), “+3.4 ± 2.5%”; with cats (setting [8]) it was “+3.8 ± 3.2%”; with cats (setting [9]), “+2.8 ± 2.8%”; in the series with cats (setting [10]), “+2.9 ± 3.2%”. For the same molecule, in the series with cats (cats i.v., same doses as bradycardia), the “effect on contractile function of heart, in words” value is on record as “inhibition of contractile function of heart”. Also, in the series with cats (cats i.v.), the “effect on heart rate, in words” value was “expressed and long bradycardia”. Also, the “Mean blood flow accelaration (aortic), change from basal level” value in the series on cats (setting [6]) is −4.9 ± 4.7%; with cats (setting [7]), −1.0 ± 5.0%; in the series on cats (setting [8]) it was “+8.1 ± 3.0 %”; in the series with cats (setting [9]), “+4.3 ± 2.7%”; in the series with cats (setting [10]), −2.4 ± 3.4%.

Consider `CCN(CC)CC(=O)Nc1c(C)cccc1C` [Lidocaine, lidocaine], for which the results for the ED50 (in [1]; with aconitine arrhythmia) were 7.5 mg/kg and 7.8 mg/kg, respectively. Further, in the series with adrenaline arrhythmia, the “Adrenaline arrhythmia. Range of active doses” value (“Adrenaline arrhythmia. Range” for short) is 5.0 to 8.0 mg/kg.

`CCSc1nc2cc(C)c(C)cc2[nH]1` [Compound I, 2-Ethylthio-5,6-dimethylbenzimidazole] yielded a melting point of 123 to 124 °C. Also, the “effect on the behavior (locomotor activity) of Balb/c mice in open-field test, in words” value in the series with Balb/c mice is “neither activatory nor inhibitory effects”.

For the molecule `C=CCSc1nc2cc(C)c(C)cc2[nH]1` (as salt: hydrochloride) [III, 2-Allylthio-5,6-dimethylbenzimidazole], the melting point lay in the range of 119 to 120 °C.

For the molecule `C=CCSc1nc2ccc(OCC)cc2[nH]1` (as salt: hydrochloride) [IV, 2-Allylthio-5-ethoxybenzimidazole], the melting point was 252 to 254 °C (dec.).

For the molecule `CC(C)NCC(O)COc1cccc2ccccc12` (centres unmarked) [Propranolol, propranolol, reference compound], the 50% effective dose (ED50) in [1] amounted to 0.8 mg/kg. Also, the “Adrenaline arrhythmia. Range” value in the series with adrenaline arrhythmia was 0.3 to 1.0 mg/kg.

On to `COc1ccc(CCN(C)CCCC(C#N)(c2ccc(OC)c(OC)c2)C(C)C)cc1OC` (centres unmarked) [Verapamil, verapamil, reference compound], for which the ED50 in [1] is 1.1 mg/kg. For the same molecule, in the series on adrenaline arrhythmia, the “Adrenaline arrhythmia. Range” value lay in the range of 0.3 to 1.0 mg/kg. The “Heart rate, change from basal level” value with cats (setting [11]) is reported as −13.7 ± 1.7 %; in the series on cats (setting [12]), −11.8 ± 2.0 %; with cats (setting [13]), −12.3 ± 3.0 %; in the series with cats (setting [14]), −8.1 ± 2.0 %; in the series with cats (setting [15]), −5.4 ± 2.0 %; in the series on cats (setting [16]) it was −4.6 ± 3.4%. Also, the “Mean blood flow accelaration, change from basal level” value in the series on cats (setting [11]) was −32.5 ± 5.7 %. The “Mean blood pressure, change from basal level” value is given as −40.4 ± 7.0 % in the series on cats (setting [11]); −22.7 ± 8.1% in the series on cats (setting [12]); −8.7 ± 6.3% in the series on cats (setting [13]); −2.4 ± 2.6% in the series on cats (setting [14]); −8.5 ± 6.6% with cats (setting [15]); −11.6 ± 7.0% in the series on cats (setting [16]). Further, the “effect on heart rate, in words” value in the series on cats (cats i.v.) was “induced the bradycardia”. For the same molecule, the “Mean blood flow accelaration (aortic), change from basal level” value in the series with cats (setting [12]) was −15.5 ± 2.4 %; with cats (setting [13]) it was −8.1 ± 3.0 %; with cats (setting [14]) it was −9.9 ± 2.5 %; in the series on cats (setting [15]), −8.7 ± 3.0%; with cats (setting [16]), −7.0 ± 4.2%.
